Experimental data published in patent US20230248741A1, “Compositions and Methods for Lowering Triglycerides in a Subject with Reduced Kidney Function and Diabetes Mellitus” (Amarin Pharmaceuticals Ireland Limited, priority 2018, published 2023).

Tested on: patients with eGFR <90 mL/min/1.73 m^2 for ≥3 months and hsCRP ≥2.0 mg/L
Experiment: ANCHOR post-hoc: lipid parameters
Assay type: in vivo, human
Conditions: 4 g/day; 12 weeks; P<0.0001
Description: CVD-related (e.g., atherogenic) parameters were analyzed in a post-hoc study of 152 patients from the multi-center, placebo-controlled, randomized double-blind, 12-week study described in Example 1. These 152 patients have reduced kidney reduced function (e.g., eGFR<90 mL/min/1.73 m^2 for ≥3 months) and hsCRP≥2.0 mg/L.
Subjects: 72 patients were randomized to E-EPA and 80 patients were randomized to placebo. In total, atherogenic parameters were analyzed in all 152 patients, 54% of which were male and 99% of which were white. The mean age of the 152 patients was 64 years old.
The primary objective of this post-hoc study, was to determine if and how 4 g of daily of >96% E-EPA, compared to placebo, affects patients with reduced kidney function, elevated hsCRP (e.g, hsCRP≥2.0 mg/L), and high triglyceride levels. […] CVD-parameters were analyzed for median difference in percent change from baseline to week 12 in subjects receiving 4 g/day of E-EPA and those receiving the placebo.
Analysis: The median difference in lipid/lipoprotein, apolipoprotein, and inflammatory parameters were determined from baseline to week 12 for 4/g day of E-EPA compared to placebo.

CC/C=C\C/C=C\C/C=C\C/C=C\C/C=C\CCCC(=O)OCC [E-EPA, ethyl eicosapentaenoate]
reduction of triglycerides compared to placebo: about 16.9%
